Results as given in the NIST ThermoML archive (doi:10.1021/je030218b).
± gives the expanded uncertainty stated by the source.

Tests used:
[1] = Liquid; for mass density / speed of sound: 298.15 K, 101.33 kPa
[2] = refractive index (Na D-line) (dimensionless); details: 298.15 K; 101.33 kPa; Liquid; Standard Abbe refractometry
[3] = xn = mol fraction of the nth substance listed; details: 298.15 K, 101 kPa, Liquid
[4] = refractive index (Na D-line) (dimensionless); xn = mol fraction of the nth substance listed; details: 298.15 K, 101 kPa, Liquid, Standard Abbe refractometry

CCO [ethanol]
Details	mass density [kg/m3]	refractive index	speed of sound [m/s]
[1]	785.36 ± 0.48	–	1143.1 ± 1.6
[2]	–	1.35916 ± 0.00072	–

Details	vapor or sublimation pressure [kPa]
[1], 351.5 K	101.3 ± 1.1

CCOC(C)=O [ethyl acetate]
Details	mass density [kg/m3]	refractive index	speed of sound [m/s]
[1]	894.24 ± 0.38	–	1137.7 ± 1.6
[2]	–	1.3698 ± 0.00072	–

Details	vapor or sublimation pressure [kPa]
[1], 350.25 K	101.3 ± 1.1

CCCCCO [pentan-1-ol]
Details	mass density [kg/m3]	refractive index	speed of sound [m/s]
[1]	810.96 ± 0.44	–	1273.3 ± 1.8
[2]	–	1.4077 ± 0.00072	–

Details	vapor or sublimation pressure [kPa]
[1], 410.59 K	101.3 ± 1.1

CC(C)CO [2-methyl-1-propanol]
Details	mass density [kg/m3]	refractive index	speed of sound [m/s]
[1]	797.84 ± 0.46	–	1185.6 ± 1.7
[2]	–	1.3937 ± 0.00072	–

Details	vapor or sublimation pressure [kPa]
[1], 381 K	101.3 ± 1.1

CC(C)CO [2-methyl-1-propanol] + CCOC(C)=O
Details	refractive index, [4]	speed of sound, [3] [m/s]
x2 = 0.052	1.39253 ± 0.00072	1186.1 ± 1.7
x2 = 0.104	1.39136 ± 0.00072	1184.4 ± 1.7
x2 = 0.155	1.39012 ± 0.00072	1182.9 ± 1.7
x2 = 0.206	1.3889 ± 0.00072	1181.5 ± 1.7
x2 = 0.258	1.38753 ± 0.00072	1179.3 ± 1.7
x2 = 0.308	1.38611 ± 0.00072	1177.5 ± 1.7
x2 = 0.359	1.3847 ± 0.00072	1175.6 ± 1.7
x2 = 0.41	1.3833 ± 0.00072	1174.2 ± 1.7
x2 = 0.46	1.38169 ± 0.00072	1171.3 ± 1.7
x2 = 0.51	1.3803 ± 0.00072	1169 ± 1.6
x2 = 0.56	1.37842 ± 0.00072	1165.2 ± 1.6
x2 = 0.609	1.37674 ± 0.00072	1163 ± 1.6
x2 = 0.659	1.37505 ± 0.00072	1160.4 ± 1.6
x2 = 0.708	1.37301 ± 0.00072	1158.2 ± 1.6
x2 = 0.757	1.37111 ± 0.00072	1155.3 ± 1.6
x2 = 0.806	1.36884 ± 0.00072	1152.8 ± 1.6
x2 = 0.855	1.36675 ± 0.00072	1150.1 ± 1.6
x2 = 0.904	1.36431 ± 0.00072	1147.4 ± 1.6
x2 = 0.952	1.36189 ± 0.00072	1144.7 ± 1.6

CCCCCO [pentan-1-ol] + CCOC(C)=O
Details	mass density, [3] [kg/m3]	refractive index, [4]	speed of sound, [3] [m/s]
x2 = 0.05	814.16 ± 0.44	1.40579 ± 0.00072	1263.5 ± 1.8
x2 = 0.101	817.63 ± 0.43	1.40382 ± 0.00072	1253.8 ± 1.8
x2 = 0.15	821.07 ± 0.42	1.40193 ± 0.00072	1245 ± 1.7
x2 = 0.2	824.6 ± 0.42	1.40012 ± 0.00072	1236.5 ± 1.7
x2 = 0.251	828.3 ± 0.41	1.39803 ± 0.00072	1227.5 ± 1.7
x2 = 0.3	831.9 ± 0.4	1.39629 ± 0.00072	1219.9 ± 1.7
x2 = 0.35	835.73 ± 0.4	1.39423 ± 0.00072	1211.9 ± 1.7
x2 = 0.4	839.69 ± 0.39	1.3925 ± 0.00072	1204.5 ± 1.7
x2 = 0.45	843.69 ± 0.38	1.39052 ± 0.00072	1198.2 ± 1.7
x2 = 0.5	847.81 ± 0.38	1.38863 ± 0.00072	1190.5 ± 1.7
x2 = 0.549	851.89 ± 0.37	1.38676 ± 0.00072	1184.1 ± 1.7
x2 = 0.599	856.06 ± 0.36	1.38493 ± 0.00072	1178.8 ± 1.7
x2 = 0.65	860.53 ± 0.36	1.38303 ± 0.00072	1172.1 ± 1.7
x2 = 0.7	865.01 ± 0.35	1.38107 ± 0.00072	1166.8 ± 1.7
x2 = 0.749	869.4 ± 0.34	1.37919 ± 0.00072	1161.7 ± 1.6
x2 = 0.8	874.19 ± 0.34	1.37733 ± 0.00072	1157.1 ± 1.6
x2 = 0.85	879 ± 0.33	1.37548 ± 0.00072	1152.2 ± 1.6
x2 = 0.898	883.69 ± 0.32	1.3736 ± 0.00072	1148 ± 1.6
x2 = 0.947	888.68 ± 0.32	1.37188 ± 0.00072	1144.1 ± 1.6
